Tested on: Colon26 tumor cells
Test: Colon26 tumor growth, combination with cyclophosphamide (Example 8)
Format: in vivo
Conditions: Colon26 in Balb/c mice; anti-SEMA4D 50 mg/kg IP weekly; cyclophosphamide 50 mg/kg IP days 12 and 20
Experimental: Experimental Design. 5×10^5 Colon26 tumor cells were implanted subcutaneously into the flank of female Balb/c mice. […] There were 20 mice per group. Tumors were measured with calipers 3×/week starting 5 days post implant. Animals were sacrificed when tumor volume reached 1000 mm^3.
Tumor growth was measured by calipers and measurements were used to calculate tumor volume using the formula (w^2×I)/2, where w=width, smaller measurement, and l=length, in mm, of the tumor.
Regression is the lack of palpable tumor, defined by a tumor measuring <50 mm^3 for at least two consecutive measurements.

O=P1(N(CCCl)CCCl)NCCCO1 (stereo not shown) [cyclophosphamide]
Tumor Growth Delay (TGD): 96%

Reference: patent publication US9243068B2, “Combination of SEMA-4D inhibitors and immunomodulators to inhibit tumors and metastases” (Vaccinex, Inc., priority 2013, dated 2016)
